Organism: Homo sapiens
Assay: Inhibition of human DNA topoisomerase-2 at 100 uM after 30 mins by agarose gel electrophoresis

## COc1cc([C@@H]2c3cc4c(cc3[C@@H](O[C@@H]3O[C@@H]5CO[C@@H](C)O[C@H]5[C@H](O)[C@H]3O)[C@H]3COC(=O)[C@H]23)OCO4)cc(OC)c1O
  inhibition: 90.3%
